Laboratory results reported in US6803466B1, “HIV/FIV protease inhibitors having a small P3 residue” (The Scripps Research Institute, priority 1997, dated 2004).

Assays:
wild type HIV PR = test: Cell culture IC90, wild type; assay type: cell-based; conditions: Human immunodeficiency virus 1, read-out: IC90 against the wild type HIV PR
I84V mutant = test: Cell culture IC90, I84V mutant; assay type: cell-based, HIV; conditions: Human immunodeficiency virus 1, read-out: IC90 against the I84V mutant
82F/84V mutant = test: Cell culture IC90, 82F/84V mutant; assay type: cell-based, HIV; conditions: Human immunodeficiency virus 1, read-out: IC90 against the 82F/84V mutant
[1] = test system: FIV-PPR in feline T-cells (104-C1); test: Ex vivo inhibitor analysis against FIV, pelletable reverse transcriptase in culture supernatant; assay type: cell-based, feline immunodeficiency virus; conditions: for FIV replication, pelletable reverse transcriptase: feline T-cells, 1 month
Description: For FIV, the assays were performed in FIV-infected feline T-cells which were cultured in the presence of compound 1200 at different concentrations over the course of 1 month. Each data in FIG. 14 represents the amount of pelletable FIV reverse transcriptase in the culture supernatant. […] After one month, the drug-treated cultures were split and replated with and without compound 1200.
The lymphocytic cell line 104-C1 (provided by C. Grant) was used as the target for infection. Cells were cultured in RPMI-1640 media supplemented with 10% FBS, 200 μM L-Glutamine, 1×MEM-Vitamins, 100 μM Sodium Pyruvate, 1×Non-Essential Amino Acids, 5.5×10−5M b-ME, 50 μg/ml Gentamicin, 50 U/ml human recombinant Interleukin-2 (provided by Hoffmann-LaRoche) and 7.5 μg/ml Concanavalin-A. For inhibitor assessment, 5×10^6 cells were infected with FIV-PPR (4×105 RT units) in 1 mL culture for 2 hr at 37° C. […] The cells were then washed with Hanks-buffered saline solution (HBSS) and resuspended in 10 ml of complete medium. The compound 1200 (10 mg/mL in DMSO) was then added to final concentrations of 0.1, 0.5, 1, and 5 μg/ml in duplicate. The cells were then incubated at 37° C. The culture supernatants were monitored for the presence of pelletable reverse transcriptase activity at weekly intervals, as follows. Cell-free culture supernatants (4 ml) were centrifuged at 60K for 30 min and the pellets were resuspended in 100 μl of lysis buffer containing 40 mM TrisHCl (pH 8.1), 360 mM NaCl, 20 mM DTT and 0.2% NP40. Twenty five μl of lysate was added to 25 μl of a mixture containing polyrA-pdT (Pharmacia, Piscataway, N.J.), MgCl2, and 3H-labeled deoxythymidine 5′-triphosphate (DuPont NEN, Boston, Mass.), and incubated for 1 hr at 37° C. The mixture was spotted on DE81 paper, air-dried, fixed in 0.1 M sodium pyrophosphate, washed three times in 0.3 M ammonium formate, and an additional time in 95% ethanol. The paper was then dried and counted on a scintillation counter.
Cells were split 1:5 after the second, third, and fourth time points and fresh inhibitor was added at the appropriate concentration at each of these intervals. The data were expressed as values +/−standard deviation of the mean.

[2] = test system: HIV WEAU-1.6 in MT-2 cells; test: microbe, parasite or virus in culture; assay type: cell-based
Description: The results from tissue culture assays against SIV (FIG. 14) and HIV (FIG. 14) were equally encouraging. […] The effectiveness of compound 1200 against HIV was measured by determining the percentage of viable cells remaining in culture over time in the presence and absence of drug (FIG. 14). In the control, HIV caused formation of multinucleated syncytia and 100% cell death by 9 days post infection. However, the cells cultured with 1 μg/ml (1.1 μM) or 5 μg/ml (5.5 μM) of inhibitor 1200 remained 100% viable after 1 month, identical to results obtained in the absence of virus infection. To test for virus in these cultures, supernatants were removed and added to 1×10^5 uninfected MT-2 cells after a 1:5 dilution with fresh CM. […] In contrast, when 2×10^5 infected MT-2 cells that had been treated with compound 1200 for two weeks were removed and replated in fresh medium with or without compound 1200 only MT-2 cells cultured in the absence of compound 1200 were dead within 4 days (data not shown). […] Cultures are being carried continuously in the presence of compound 12 to look for resistance development. Tests are also underway to determine the level of efficacy of the compound against a defined panel of drug-resistant HIVs.
WEAU-1.6, a kind gift of George Shaw, University of Alabama (^18), a CXCR4 utilizing isolate, was used for all studies. 2×10^5 MT-2 cells in 0.1 ml were infected for 4 hr, at 37° C., using WEAU-1.6 at 25 TCID50. Before establishing cultures for inhibitor assessment infected cells were washed 3 times with complete medium (CM), which was RPMI-1640 supplemented with 10% FBS, […], 200 mM L-glutamine, and […] of gentamicin sulfate, to remove any unbound virus. For inhibitor assessment cultures were established in duplicate or triplicate using 5×10^4 infected cells and 1×10^5 uninfected cells in a total volume of 1.5 mls in Costar 6 well-plates. Once cultures were established they were split 1:4 every 3 days, and given fresh CM. Compound 12 (from a 10 mg/ml stock in DMSO) was added at […] at initiation of the culture and after each split. For testiing of the antiviral efficacy of compound 1200 in MT-2 were assessed every day using a Olympus (model) inverted microscope equipped with phase contrast objectives. When MT-2 cells are infected with WEAU-1.6 they form syncytia and die with in 24 hours, events easily discernible visually. A total of 200 cells were counted in each well, and when syncytia were noted, cells were removed and tested for viability by using trypan-blue. Results are expressed as the average of viable cells.

[3] = Human immunodeficiency virus 1, MT2, read-out: viable cells remaining in culture

## CC(C)[C@H](NC(=O)[C@H](C)NC(=O)OCc1ccccc1)C(=O)N[C@@H](Cc1ccccc1)[C@@H](O)[C@H](O)[C@H](Cc1ccccc1)NC(=O)[C@@H](NC(=O)[C@H](C)NC(=O)OCc1ccccc1)C(C)C [Compound 1b]
Wild type HIV PR
  IC90: 0.1 µM
I84V mutant
  IC90: 0.4 µM
82F/84V mutant
  IC90: 0.9 µM
[1]
  prevention of FIV infection in tissue culture (in words): strongly inhibits
  FIV replication, pelletable reverse transcriptase: markedly inhibit
[1]; 1.0 μg/ml (1.1 μM)
  FIV replication, pelletable reverse transcriptase: most effective
[1]; after one month of treatment, two weeks in culture
  virus after drug-treated cultures were split and replated with and without drug: No virus was detected
[1]; eight weeks of continuous culture
  resistance development against the drug: No sign of resistance development
[2]
  inhibition of HIV infection in tissue culture (in words): strongly inhibits
[2]; 1:5 dilution, after 3 weeks
  free virus in supernatants, transfer to uninfected MT-2 cells: remained uninfected
[2]; [3]
  viability at 1.1 µM: 100%
  viability at 5.5 µM: 100%
